Common to all, as to assay type: cell-based
Assay [1] deals with NK1 (Homo sapiens, UniProt P25103). Nature of the assay: Signal transduction (ST), intracellular Ca++ FLIPR, NK1. The following applies: antagonist response, Ca++ transient peak, read-out: NK1 pIC50 (converted). The method, then:
This test evaluates in vitro functional NK1 antagonistic activity. For the measurements of intracellular Ca^++ concentrations the cells were grown on 96-well (black wall/transparent bottom) plates from Costar for 2 days until they reached confluence. The cells were loaded with 2 μM Fluo3 in DMEM containing 0.1% BSA and 2.5 mM probenecid for 1 h at 37° C. They were washed 3× with a Krebs buffer (140 mM NaCl, 1 mM MgCl2×6H2O, 5 mM KCl, 10 mM glucose, 5 mM HEPES; 1.25 mM CaCl2; pH 7.4) containing 2.5 mM probenecid and 0.1% BSA (Ca^++-buffer). The cells were preincubated with a concentration range of antagonists for 20 min at RT and Ca^++-signals after addition of the agonists were measured in a Fluorescence Inage Plate Reader (FLIPR from Molecular Devices, Crawley, England). The peak of the Ca^++-transient was considered as the relevant signal and the mean values of corresponding wells were analysed as described below. The sigmoidal dose response curves were analysed by computerised curve-fitting, using the GraphPad Program. The EC50-value of a compound is the effective dose showing 50% of maximal effect. For mean curves the response to the agonist with the highest potency was normalised to 100%. For antagonist responses the IC50-value was calculated using non-linear regression. The last column indicates—without being limited thereto—for which use the compounds might be most suitable.

The target in assay [2] is T1, NK2 (Homo sapiens, UniProt P21452).
T1 sequence (P21452 1-398): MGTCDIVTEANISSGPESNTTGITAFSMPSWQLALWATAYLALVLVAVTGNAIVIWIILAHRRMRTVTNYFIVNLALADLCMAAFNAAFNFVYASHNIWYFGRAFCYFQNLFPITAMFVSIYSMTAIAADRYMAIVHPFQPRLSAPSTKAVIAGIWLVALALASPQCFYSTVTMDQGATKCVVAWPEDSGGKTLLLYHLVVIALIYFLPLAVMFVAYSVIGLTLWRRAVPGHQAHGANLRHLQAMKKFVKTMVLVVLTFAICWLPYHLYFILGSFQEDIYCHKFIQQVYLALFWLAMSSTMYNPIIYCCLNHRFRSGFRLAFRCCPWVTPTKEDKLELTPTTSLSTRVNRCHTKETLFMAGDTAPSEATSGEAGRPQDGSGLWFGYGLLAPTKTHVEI
Nature of the assay: Signal transduction (ST), intracellular Ca++ FLIPR, NK2. As to conditions: antagonist response, Ca++ transient peak, read-out: NK2 pIC50 (converted).

The target of assay [3] is T2, NK3 (Homo sapiens, UniProt P29371).
T2 sequence (P29371 1-465): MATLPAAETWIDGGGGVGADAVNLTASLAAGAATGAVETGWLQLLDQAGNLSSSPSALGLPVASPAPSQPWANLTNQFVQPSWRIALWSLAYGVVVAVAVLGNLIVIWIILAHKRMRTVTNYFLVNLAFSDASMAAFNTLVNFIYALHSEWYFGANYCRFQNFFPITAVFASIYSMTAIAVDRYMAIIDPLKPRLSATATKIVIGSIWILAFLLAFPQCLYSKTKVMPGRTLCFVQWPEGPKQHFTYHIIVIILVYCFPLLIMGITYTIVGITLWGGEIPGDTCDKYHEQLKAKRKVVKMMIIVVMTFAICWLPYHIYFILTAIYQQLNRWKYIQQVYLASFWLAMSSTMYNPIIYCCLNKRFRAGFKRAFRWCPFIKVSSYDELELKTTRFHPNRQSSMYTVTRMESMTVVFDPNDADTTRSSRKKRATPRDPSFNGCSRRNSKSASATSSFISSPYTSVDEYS
Nature of the assay: Signal transduction (ST), intracellular Ca++ FLIPR, NK3. As to conditions: antagonist response, Ca++ transient peak, read-out: NK3 pIC50 (converted).

Data on 18 compounds can be found in patent US8604200B2, “Diaza-spiro-{4,4}-nonane derivatives as neurokinin (NK1) antagonists” (Janssen Pharmaceutica N.V., priority 2005, dated 2013).

A value given as a limit tells only on which side of the number the result lay.

NK1, sequence (P25103 whole entry): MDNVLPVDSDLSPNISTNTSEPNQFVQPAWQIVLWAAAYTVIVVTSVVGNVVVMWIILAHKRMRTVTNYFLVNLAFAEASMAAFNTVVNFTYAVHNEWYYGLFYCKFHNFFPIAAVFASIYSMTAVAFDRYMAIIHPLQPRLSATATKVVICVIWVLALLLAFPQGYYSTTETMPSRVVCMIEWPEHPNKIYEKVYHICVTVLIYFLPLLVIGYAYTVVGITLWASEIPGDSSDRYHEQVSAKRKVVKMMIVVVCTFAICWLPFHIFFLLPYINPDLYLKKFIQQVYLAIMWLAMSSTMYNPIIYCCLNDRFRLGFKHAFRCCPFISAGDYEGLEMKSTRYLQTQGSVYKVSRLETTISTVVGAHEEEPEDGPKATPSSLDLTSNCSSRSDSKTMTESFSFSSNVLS

As to `O=C(c1cc(C(F)(F)F)cc(C(F)(F)F)c1)N1CCC(N2CCC3(CCCN3C(=O)C3CCOC3)C2)CC1Cc1ccccc1` (single isomer, unassigned) [Compound 1-5], the IC50 is 0.0501 µM in assay [1] and 6.31 µM in assay [2].

Regarding `O=C(c1cc(C(F)(F)F)cc(C(F)(F)F)c1)N1CCC(N2CCC3(CCCN3C(=O)C3CCOC3)C2)CC1Cc1ccccc1` (single isomer, unassigned) [Compound 1-6], the IC50 is 0.0631 µM in assay [1], 1.58 µM in assay [2] and greater than 10 µM in assay [3].

As for `O=C(c1cc(C(F)(F)F)cc(C(F)(F)F)c1)N1CCC(N2CCC3(CCCN3Cc3ccccc3)C2)CC1Cc1ccccc1` (stereo not drawn) [Compound 1-2], the IC50 in assay [1] was 0.631 µM; in assay [2], greater than 10 µM; in assay [3], greater than 10 µM.

Consider `O=C(c1cc(C(F)(F)F)cc(C(F)(F)F)c1)N1CCC(N2CCC3(CCCN3C(=O)C3CC3)C2)CC1Cc1ccccc1` (stereo not drawn) [Compound 1-3], for which the IC50 in assay [1] was 0.251 µM; in assay [2], 3.98 µM; in assay [3] it was greater than 10 µM.

In the case of `O=C(c1cc(C(F)(F)F)cc(C(F)(F)F)c1)N1CC[C@H](N2CCC3(CCCN3C(=O)c3ccoc3)C2)C[C@H]1Cc1ccccc1` (stereo partly drawn) [Compound 1-7], the values for the IC50 in assay [1], in assay [2] and in assay [3] were 0.1 µM, 3.16 µM and greater than 10 µM, respectively.

As for `O=C(c1cc(C(F)(F)F)cc(C(F)(F)F)c1)N1CC[C@@H](N2CCC3(CCCN3C(=O)c3ccoc3)C2)C[C@H]1Cc1ccccc1` (stereo partly drawn) [Compound 1-8], the IC50 in assay [1] is 0.1 µM; in assay [2] it was 6.31 µM; in assay [3] it was greater than 10 µM.

For the compound `O=C(c1cc(C(F)(F)F)cc(C(F)(F)F)c1)N1CC[C@@H](N2CCC3(CCCN3C(=O)c3cccs3)C2)C[C@H]1Cc1ccccc1` (stereo partly drawn) [Compound 1-9], the IC50 in assay [1] was 0.0501 µM; in assay [2], 6.31 µM; in assay [3], greater than 10 µM.

With `O=C(c1cc(C(F)(F)F)cc(C(F)(F)F)c1)N1CC[C@H](N2CCC3(CCCN3C(=O)c3ccccc3)C2)C[C@H]1Cc1ccccc1` (stereo partly drawn) [Compound 1-10], the values for the IC50 in assay [1], in assay [2] and in assay [3] were 0.2 µM, 5.01 µM and greater than 10 µM, respectively.

In the case of `O=C(c1cc(C(F)(F)F)cc(C(F)(F)F)c1)N1CC[C@@H](N2CCC3(CCCN3C(=O)c3ccccc3)C2)C[C@H]1Cc1ccccc1` (stereo partly drawn) [Compound 1-11], the IC50 in assay [1] was 0.158 µM; in assay [3], greater than 10 µM.

With `O=C(c1cc(C(F)(F)F)cc(C(F)(F)F)c1)N1CC[C@@H](N2CCC3(CCCN3C(=O)c3cnccn3)C2)C[C@H]1Cc1ccccc1` (stereo partly drawn) [Compound 1-12], the IC50 in assay [1] was 0.2 µM; in assay [2], 3.98 µM; in assay [3], greater than 10 µM.

As for `CC(C)(C)C(=O)N1CCC2(CCN([C@H]3CCN(C(=O)c4cc(C(F)(F)F)cc(C(F)(F)F)c4)[C@H](Cc4ccccc4)C3)C2)C1` (stereo partly drawn) [Compound 2-3], the IC50 in assay [1] is 0.0631 µM; in assay [2] it was 3.16 µM; in assay [3], 6.31 µM.

For `O=C(C1CC1)N1CCC2(CCN(C3CCN(C(=O)c4cc(C(F)(F)F)cc(C(F)(F)F)c4)C(Cc4ccccc4)C3)C2)C1` (stereo not drawn) [Compound 2-4], the IC50 was 0.1 µM in assay [1] and 2.51 µM in assay [2].

In the case of `O=C(C1CCOC1)N1CCC2(CCN([C@H]3CCN(C(=O)c4cc(C(F)(F)F)cc(C(F)(F)F)c4)[C@H](Cc4ccccc4)C3)C2)C1` (stereo partly drawn) [Compound 2-5], the IC50 in assay [1] is 0.0398 µM; in assay [2], 2.51 µM; in assay [3], 2 µM.

Take `O=C(c1ccoc1)N1CCC2(CCN([C@H]3CCN(C(=O)c4cc(C(F)(F)F)cc(C(F)(F)F)c4)[C@H](Cc4ccccc4)C3)C2)C1` (stereo partly drawn) [Compound 2-6]: the IC50 was 0.0501 µM in assay [1], 5.01 µM in assay [2] and 3.16 µM in assay [3].

Take `O=C(c1cccs1)N1CCC2(CCN([C@H]3CCN(C(=O)c4cc(C(F)(F)F)cc(C(F)(F)F)c4)[C@H](Cc4ccccc4)C3)C2)C1` (stereo partly drawn) [Compound 2-7]: the results for the IC50 in assay [1], in assay [2] and in assay [3] were 0.158 µM, 6.31 µM and 2.51 µM, respectively.

Take `Cc1nnsc1C(=O)N1CCC2(CCN([C@H]3CCN(C(=O)c4cc(C(F)(F)F)cc(C(F)(F)F)c4)[C@H](Cc4ccccc4)C3)C2)C1` (stereo partly drawn) [Compound 2-8]: the IC50 is 0.1 µM in assay [1], 6.31 µM in assay [2] and 3.98 µM in assay [3].

Regarding `O=C(c1ccccc1)N1CCC2(CCN([C@H]3CCN(C(=O)c4cc(C(F)(F)F)cc(C(F)(F)F)c4)[C@H](Cc4ccccc4)C3)C2)C1` (stereo partly drawn) [Compound 2-9], the IC50 in assay [1] is 0.126 µM; in assay [2], 5.01 µM; in assay [3], 3.98 µM.

Turning to `O=C(c1cnccn1)N1CCC2(CCN([C@H]3CCN(C(=O)c4cc(C(F)(F)F)cc(C(F)(F)F)c4)[C@H](Cc4ccccc4)C3)C2)C1` (stereo partly drawn) [Compound 2-10], the values for the IC50 in assay [1], in assay [2] and in assay [3] were 0.251 µM, 5.01 µM and greater than 10 µM, respectively.
